For two compounds, IC50 results are on record in patent US8492589B2, “Alkynyl phenyl derivative compounds for treating ophthalmic diseases and disorders” (Acucela Inc., priority 2007, dated 2013).

The structures appear in SMILES notation.

For this test, the target named is T1, visual cycle isomerase (Bovine RPE microsome membranes) (Bos taurus, UniProt Q28175).
T1 construct: Bovine Retinal Pigment Epithelium (RPE) microsome membranes were the source of a visual cycle isomerase; from tissue; host or cells: bovine retinal pigment epithelium microsome membranes
T1 sequence (Q28175 2-533 limits assumed): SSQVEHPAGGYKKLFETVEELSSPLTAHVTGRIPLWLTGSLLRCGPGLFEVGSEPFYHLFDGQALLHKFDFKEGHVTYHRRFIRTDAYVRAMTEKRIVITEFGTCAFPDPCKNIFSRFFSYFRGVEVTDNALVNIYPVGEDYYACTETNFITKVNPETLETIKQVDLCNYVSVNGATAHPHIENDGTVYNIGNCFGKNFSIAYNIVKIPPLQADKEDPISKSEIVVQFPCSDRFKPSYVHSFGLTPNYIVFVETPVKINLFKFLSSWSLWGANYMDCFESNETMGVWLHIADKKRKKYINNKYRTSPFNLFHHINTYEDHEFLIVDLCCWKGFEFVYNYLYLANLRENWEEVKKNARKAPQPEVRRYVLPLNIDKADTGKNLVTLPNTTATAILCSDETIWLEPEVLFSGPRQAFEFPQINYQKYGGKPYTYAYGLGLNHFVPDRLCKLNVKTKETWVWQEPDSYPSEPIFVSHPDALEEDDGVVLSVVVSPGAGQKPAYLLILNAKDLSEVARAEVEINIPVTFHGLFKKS
The test can be described thus: In vitro isomerase inhibition assay, bovine RPE microsome membranes. The class given is biochemical. Particulars: bovine RPE microsomes; 11-cis retinol formation. In a few lines:
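Bovine RPE microsomes incubated 30 min at 37 °C with 20 μM all-trans retinol and 6 μM recombinant human apo-CRALBP in 10 mM BTP pH 7.5, 0.5% BSA, 1 mM pyrophosphate, plus compound in ethanol. 11-cis retinol formation quantified by normal-phase HPLC (A318) after heptane extraction; duplicates.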

Turning to `CC(C)(O)C#Cc1cccc(CCCN)c1` [Example 7, 4-(3-(3-Aminopropyl)phenyl)-2-methylbut-3-yn-2-ol], the IC50 (in general, the concentration at which inhibition is half-maximal) was no more than 1 µM.

The compound `NCCC(O)c1cccc(C#CC2(O)CCCCC2)c1` (centres unmarked) [Example 99, 1-((3-(3-Amino-1-hydroxypropyl)phenyl)ethynyl)cyclohexanol] gave an IC50 of no more than 1 µM.
